This is an account of results in publication PMC10545790.

Values after ≈ are worked out from the molar mass of the structure shown. Values joined by “and” are separate entries in the source; they are usually repeats but may differ in a detail not shown here. Equal values may be shown once. “Also recorded” adds a separate entry of the source. Read-outs that look alike come from different tables or passages of the source.

A short description of series [1]: Determination of pKa values (potentiometric titration). The series is classed as physicochemical. Conditions: methanol-water (1:4) solution of NaCl; titration method; potentiometric acid-base titration at 25 °C in methanol-water (1:4), 150 mM NaCl; read-out: pKa (exp.). The method, then:
Data is obtained by the titration method. Para-methyl benzoic acid (83) is used as a reference. TEXT PRINTED IN THE PICTURE: 83: pKa (exp.): 4.5 ± 0.1 | 84: pKa (exp.): 5.6 ± 0.1 | 47: pKa (exp.): 4.4 ± 0.1 | 54: pKa (exp.): 4.1 ± 0.1 […]
Determination of pKa values
The tendency of a compound to donate proton is measured as its acid ionization constant (dissociation constant), or Ka. A more practical scale of representing acidity is pKa which is the negative logarithm of the Ka (pKa = -log Ka). pKa of a test article is determined by pH-metric method based on potentiometric acid-base titration at 25 °C. The test compounds are dissolved in acidified methanol-water (1:4) solution of NaCl (150 mM, pH 2) and slowly titrated with 0.3 M sodium hydroxide methanol-water (1:4) solution, while recording pH of the solution as a function of NaOH volume used during the titration (construction of the titration curve). Titration of acidified NaCl solution in absence of any compounds is used for blank plotting.5-8 Buffering capacity is calculated in each point of titration curve as the ratio of the NaOH flow (constant) to the pH rise velocity. The pKa value is determined from resulting plot of buffering capacity versus pH as the maximum of buffering capacity. pH-metric method allows to measure pKas in the range of approximately between 2 and 12. […]
meter, pHi®510 (Beckman Coulter, Canada; Cat# A58734). Data analysis was done using GraphPad […]
Sodium hydroxide (Enamine, Ukraine; CAS # 1310-73-2)
Sodium chloride BioXtra, ≥99.5% (AT) (Sigma-Aldrich, USA; Cat # S7653)
Hydrochloric acid (Enamine, Ukraine; CAS # 7647-01-0)
Disposable pipette tips (Eppendorf, German; Matrix and Finntip, Thermo, USA) Polypropylene graduated conical tubes, 50 mL (Kartell, Italy; Cat. # 84002) Polypropylene syringe (10 mL) with tubing (Hemoplast, Ukraine) […]
pH-meter, pHi®510 (Beckman Coulter, Canada; Cat# A58734)
Multichannel Electronic Pipettes 5-50 µL, 10-1000 µL (Thermo, USA)
Magnetic stirrer standard unit (IKA, USA)
Syringe Driver Mdl 100 (KDScientific, USA)

Series [2] can be described thus: Thermal and chemical stability. The series is classed as physicochemical. Conditions: for chemical stability in acid: aq. 1 M HCl; for chemical stability in acid / chemical stability in base / stability on storage: room temperature; for chemical stability in acid / chemical stability in base: 1 h; for chemical stability in base: aq. 1 M NaOH; for thermal stability: heating at 100 °C for five minutes; for stability on storage: in air, closed vials, one year, 1H NMR. The text has this: We also examined the thermal and chemical stability of the synthesized 2-oxabicyclo[2.2.2]octanes. As representative examples, we selected three molecules: isomeric acids 47, 54, and amine 52. All 2-oxabicyclo[2.2.2]octanes were crystalline solids that were stable in air. We stored them in stock at room temperature in closed vials and observed no changes according to ^1H NMR after one year. […] Treatment of the selected 2-oxabicyclo[2.2.2]octanes with aq. 1 M HCl, or aq.

In another series the target is ABL1 kinase (Homo sapiens, UniProt P00519). Conditions: for Luminescence, Raw Data (LUM): ADP-Glo.
The nature of series [3]: Kinetic solubility in phosphate-buffered saline, pH 7.4.
The nature of series [4]: Metabolic stability in human liver microsomes. Conditions: both, human, liver microsomes (pooled). A general note: Microsomes from liver hold many membrane-bound enzymes, among them those of drug oxidation.
The test system of series [5] is human liver microsomes. Kind of series: Metabolic stability in human liver microsomes. Conditions: human liver microsomes.
A short description of a further series: physchem. Conditions: pH 7.4, logD (7.4): experimental distribution coefficient in n-octanol/phosphate-buffered saline.
The test system of series [6] is human liver microsomes. Conditions: both, 2 µM, pH 7.4.

Chain of ABL1 kinase (P00519 whole entry): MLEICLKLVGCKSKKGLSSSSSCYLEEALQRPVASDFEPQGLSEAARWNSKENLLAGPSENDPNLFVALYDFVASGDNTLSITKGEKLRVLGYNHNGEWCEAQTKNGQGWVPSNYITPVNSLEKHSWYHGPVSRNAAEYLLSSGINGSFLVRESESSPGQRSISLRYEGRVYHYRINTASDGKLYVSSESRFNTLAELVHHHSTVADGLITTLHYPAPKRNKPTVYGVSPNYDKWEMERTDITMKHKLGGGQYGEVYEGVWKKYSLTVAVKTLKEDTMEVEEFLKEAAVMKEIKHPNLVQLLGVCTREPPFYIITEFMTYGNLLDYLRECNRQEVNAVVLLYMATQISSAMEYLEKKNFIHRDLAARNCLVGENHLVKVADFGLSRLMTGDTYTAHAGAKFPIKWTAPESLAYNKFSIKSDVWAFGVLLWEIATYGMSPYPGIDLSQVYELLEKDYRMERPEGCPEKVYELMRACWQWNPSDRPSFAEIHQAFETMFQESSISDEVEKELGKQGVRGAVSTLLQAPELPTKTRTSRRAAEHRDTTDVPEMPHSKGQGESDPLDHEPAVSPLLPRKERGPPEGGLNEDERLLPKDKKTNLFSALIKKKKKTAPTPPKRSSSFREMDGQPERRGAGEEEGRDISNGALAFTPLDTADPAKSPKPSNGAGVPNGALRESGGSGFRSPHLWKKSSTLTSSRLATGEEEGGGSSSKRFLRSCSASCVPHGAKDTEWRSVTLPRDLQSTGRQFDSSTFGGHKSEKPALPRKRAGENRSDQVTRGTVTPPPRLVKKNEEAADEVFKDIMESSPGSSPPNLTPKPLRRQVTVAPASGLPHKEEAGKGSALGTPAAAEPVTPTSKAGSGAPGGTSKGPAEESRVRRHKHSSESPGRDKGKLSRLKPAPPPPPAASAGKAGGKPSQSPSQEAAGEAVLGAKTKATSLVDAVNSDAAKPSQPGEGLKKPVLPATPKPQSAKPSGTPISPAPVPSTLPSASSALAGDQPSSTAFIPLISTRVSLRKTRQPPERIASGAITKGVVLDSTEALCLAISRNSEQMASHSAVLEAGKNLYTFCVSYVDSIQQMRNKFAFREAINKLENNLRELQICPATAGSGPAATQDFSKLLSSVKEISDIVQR

Usually pKa stands for the pH at which an ionisable group is half protonated. With `CC12CCC(C(=O)O)(CC1)CC2` [Compound 84, reference compound], the pKa in series [1] came out at 5.6.
With `CC12CCC(C(=O)O)(CC1)OC2` [Compound 54], the pKa in series [1] was found to be 4.1. Also, in series [2], the “chemical stability in acid” value was “no decomposition”, the “chemical stability in base” value is “no decomposition”, the thermal stability entry is “remained stable” and the stability on storage entry is “no changes”.
Broadly, the kinetic solubility is solubility judged after dilution from a stock solution rather than from solid. For orientation: microsomal CLint means a measure of how fast metabolising enzymes remove a compound, apart from limits set by blood flow. A low value points to slow turnover. What is called half-life is the time in which the quantity being followed falls by half. A higher half-life goes with slow loss. By logD is commonly meant lipophilicity at a set pH, counting ionised and neutral species. A higher logD goes with higher lipophilicity. Take `Cc1ccc(NC(=O)C23CCC(CN4CCN(C)CC4)(CC2)OC3)cc1Nc1nccc(-c2cccnc2)n1` [Compound 85]: the “inhibitory effect on the catalytic activity of ABL1 kinase (in words)” value on ABL1 kinase (ADP-Glo Kinase Assay, 12 concentration points) was “did not observe any significant inhibitory effect; also recorded: inactive”. The “Luminescence, Raw Data (LUM)” value is 1058 and 1113 and 1791 and 1922 at ABL1 kinase (1st run, plate ABL1_CpdsTitr_Read1, single wells, compound 15 nM); 1154 and 1300 and 1938 and 1968 on ABL1 kinase (1st run, plate ABL1_CpdsTitr_Read1, single wells, compound 29 nM); 1819 and 1993 and 1840 and 1873 at ABL1 kinase (1st run, plate ABL1_CpdsTitr_Read1, single wells, compound 59 nM); 2012 and 2091 and 2063 and 1940 at ABL1 kinase (1st run, plate ABL1_CpdsTitr_Read1, single wells, compound 117 nM); 1243 and 1296 and 1230 and 1333 on ABL1 kinase (1st run, plate ABL1_CpdsTitr_Read1, single wells, compound 234 nM); 1542 and 1412 and 1342 and 1622 on ABL1 kinase (1st run, plate ABL1_CpdsTitr_Read1, single wells, compound 469 nM). Further, the “Luminescence, Raw Data (LUM)” value at ABL1 kinase (1st run, plate ABL1_CpdsTitr_Read1, single wells, compound 938 nM) was 1188 and 1448 and 1337 and 1335; at ABL1 kinase (1st run, plate ABL1_CpdsTitr_Read1, single wells, compound 1500 nM), 1805 and 977 and 1232 and 1070; at ABL1 kinase (1st run, plate ABL1_CpdsTitr_Read1, single wells, compound 1875 nM) it was 1156 and 1302 and 1289 and 1256; on ABL1 kinase (1st run, plate ABL1_CpdsTitr_Read1, single wells, compound 3000 nM) it was 1327 and 1543 and 1534 and 1388; on ABL1 kinase (1st run, plate ABL1_CpdsTitr_Read1, single wells, compound 3750 nM) it was 1381 and 1311 and 1134; on ABL1 kinase (1st run, plate ABL1_CpdsTitr_Read1, single wells, compound 7500 nM), 1269 and 1270 and 1321 and 1071. For the same molecule, the “Luminescence, Raw Data (LUM)” value was 6198 and 6465 and 5917 and 6372 on ABL1 kinase (2nd run, plate ABL1_CpdsTitr2_Read1, single wells, compound 15 nM); 7090 and 6257 and 6692 and 6143 on ABL1 kinase (2nd run, plate ABL1_CpdsTitr2_Read1, single wells, compound 29 nM); 6364 and 6701 and 5655 and 6486 on ABL1 kinase (2nd run, plate ABL1_CpdsTitr2_Read1, single wells, compound 59 nM); 6190 and 6555 and 5494 and 6585 on ABL1 kinase (2nd run, plate ABL1_CpdsTitr2_Read1, single wells, compound 117 nM); 5219 and 5282 and 5107 and 4913 at ABL1 kinase (2nd run, plate ABL1_CpdsTitr2_Read1, single wells, compound 234 nM); 6324 and 5692 and 5791 and 5812 on ABL1 kinase (2nd run, plate ABL1_CpdsTitr2_Read1, single wells, compound 469 nM). The “Luminescence, Raw Data (LUM)” value on ABL1 kinase (2nd run, plate ABL1_CpdsTitr2_Read1, single wells, compound 938 nM) was 6138 and 6238 and 6011 and 5496; at ABL1 kinase (2nd run, plate ABL1_CpdsTitr2_Read1, single wells, compound 1500 nM), 5294 and 5538 and 5113 and 5062; on ABL1 kinase (2nd run, plate ABL1_CpdsTitr2_Read1, single wells, compound 1875 nM) it was 6881 and 6876 and 6366 and 6488; at ABL1 kinase (2nd run, plate ABL1_CpdsTitr2_Read1, single wells, compound 3000 nM), 4805 and 5280 and 4474 and 4682; at ABL1 kinase (2nd run, plate ABL1_CpdsTitr2_Read1, single wells, compound 3750 nM), 6509 and 5880 and 6068 and 5810; at ABL1 kinase (2nd run, plate ABL1_CpdsTitr2_Read1, single wells, compound 7500 nM), 6480 and 6469 and 6139 and 5760. The molecule also returned a solubility (kinetic) at 2 h in series [3] (25 °C, pH 7.4, aqueous buffer, kinetic from dmso stock) of 389 µM (≈ 205 µg/mL). Also, the k el at 2 µM in series [4] (pH 7.4) was 0.000133 s⁻¹. The molecule also displayed an intrinsic clearance (microsomal CLint) at 2 µM in series [4] (pH 7.4) of 19 µL/min/mg. The fraction remaining at 40 min, 2 µM in series [4] (pH 7.4, % Remaining without cofactor, Mean of 2, human liver microsomes, NADPH-cofactor system substituted with phosphate buffer) was found to be 118%; in series [4] (pH 7.4, % Remaining, Mean of 2, human liver microsomes with NADPH), 73%. Besides, the fraction remaining at 7 min, 2 µM in series [4] (pH 7.4, % Remaining, Mean of 2, human liver microsomes with NADPH, 7 min) turned out to be 101%. For the same molecule, the fraction remaining at 0.25 h, 2 µM in series [4] (pH 7.4, % Remaining, Mean of 2, human liver microsomes with NADPH, 15 min) came to 98%. In addition, the share remaining at 25 min, 2 µM in series [4] (pH 7.4, % Remaining, Mean of 2, human liver microsomes with NADPH, 25 min) stood at 90%. The half-life at 2 µM in series [4] (pH 7.4, t1/2: half-time of a metabolic decomposition, human liver microsomes, 2 μM compound, NADPH, 37 °C) stood at 1.45 h. Moreover, the CLint in the series with human liver microsomes [5] is on record as 19. For the same molecule, the “t1/2: half-time of a metabolic decomposition” value in the series on human liver microsomes [5] (2 μM compound, NADPH, 37 °C) amounted to 1.45 h. This molecule came in with a logD in the series “physchem” of 1.8.
In the case of `Cc1nccn1CC1CCc2c(c3ccccc3n2C)C1=O` (centres unmarked) [Ondansetron, reference compound], the kinetic solubility at 2 h in series [3] (pH 7.4) was 126 µM (≈ 37 µg/mL).
Consider `CC12CCC(C(=O)O)(CC1)CO2` [Compound 47], for which, in series [1], the pKa came to 4.4. Besides, in series [2], the “chemical stability in acid” value is reported as “no decomposition”, the “chemical stability in base” value is on record as “no decomposition”, the thermal stability entry is “remained stable” and the stability on storage entry is given as “no changes”.
Take `Cc1ccc(C(=O)O)cc1` [Compound 83, para-methyl benzoic acid, reference compound]: the pKa in series [1] was 4.5.
`O=C(O)Cc1ccccc1Nc1c(Cl)cccc1Cl` [Diclofenac]: in the series on human liver microsomes [6], the “kel (elimination constant)” value was found to be 0.119 min⁻¹. For the same molecule, the “% Remaining, Mean of 2” value with human liver microsomes [6] (microsomes, 7 min) is given as 49%. Besides, the “% Remaining without cofactor, Mean of 2” value with human liver microsomes [6] (microsomes, 40 min) is recorded as 91%.
